Here are results for 29 molecules from US8163779B2, “Glucokinase activators” (Takeda San Diego, Inc., priority 2006, dated 2012).

For this assay, the target named is T1, glucokinase (GK) (Homo sapiens, UniProt P35557).
T1 construct: I.D. No. 1 corresponds to residues 12-465 of glucokinase; made in house; host or cells: E. coli DH10b-T1r
T1 sequence (P35557 with tags, fused parts or gaps isoform P35557-2): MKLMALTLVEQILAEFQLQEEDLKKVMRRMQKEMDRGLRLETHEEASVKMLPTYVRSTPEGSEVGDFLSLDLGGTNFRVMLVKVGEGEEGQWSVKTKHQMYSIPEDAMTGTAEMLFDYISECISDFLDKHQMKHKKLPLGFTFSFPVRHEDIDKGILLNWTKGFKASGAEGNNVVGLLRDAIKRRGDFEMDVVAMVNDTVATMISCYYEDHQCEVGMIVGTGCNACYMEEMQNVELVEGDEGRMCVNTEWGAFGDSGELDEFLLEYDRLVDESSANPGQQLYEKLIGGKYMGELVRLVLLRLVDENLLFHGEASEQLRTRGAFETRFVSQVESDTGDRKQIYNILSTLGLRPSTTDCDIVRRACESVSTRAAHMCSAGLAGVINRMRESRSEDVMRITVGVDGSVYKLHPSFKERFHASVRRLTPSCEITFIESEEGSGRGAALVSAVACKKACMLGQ
Description: enzymatic glucokinase activity assay (ATP consumption, KinaseGlo luminescence). Type of assay: biochemical. The following applies: recombinant GK residues 12-465; 5 μM ATP, 5 mM Glucose; Kact = concentration that displays 50% of the maximal increase in GK activity; read-out: pKact. In a few lines:
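Activation was scored as ATP consumption, quantified by KinaseGlo luciferase luminescence after a 60 min room-temperature reaction. Reactions contained E. coli-expressed, purified GK, 5 μM ATP, 5 mM glucose, 10 mM MgCl2, 0.01% Brij35 and 2% DMSO at pH 7.2; pKact was fitted non-linearly.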
(In general: Kinase-Glo measures the ATP left after a reaction by luminescence.)
With `Cn1ccc(NC(=O)[C@H](CC2CCOCC2)n2ccc(S(=O)(=O)C3CC3)cc2=O)n1` [Example 74, (S)-2-(4-(cyclopropylsulfonyl)-2-oxopyridin-1(2H)-yl)-N-(1-methyl-1H-pyrazol-3-yl)-3-(tetrahydro-2H-pyran-4-yl)propanamide], the EC50 fell in the range of 1.58 to 15.8 µM.
On to `COc1ccc2nc(NC(=O)[C@@H](CC3CCCCC3)n3ccc(S(=O)(=O)C4CC4)cc3=O)sc2n1` [Example 75, (R)-3-cyclohexyl-2-(4-(cyclopropylsulfonyl)-2-oxopyridin-1(2H)-yl)-N-(5-methoxythiazolo[5,4-b]pyridin-2-yl)propanamide], for which the EC50 fell in the range of 1.58 to 15.8 µM.
Next, `COc1ccc2nc(NC(=O)[C@H](CC3CCCCC3)n3ccc(S(=O)(=O)C4CC4)cc3=O)sc2n1` [Example 76, (S)-3-cyclohexyl-2-(4-(cyclopropylsulfonyl)-2-oxopyridin-1(2H)-yl)-N-(5-methoxythiazolo[5,4-b]pyridin-2-yl)propanamide]: below 1.58 µM.
With `Cc1cc(S(=O)(=O)C2CC2)c(Cl)c(=O)n1[C@@H](CC1CCCCC1)C(=O)Nc1ncc(Cl)s1` [Example 77, (S)-2-(3-chloro-4-(cyclopropylsulfonyl)-6-methyl-2-oxopyridin-1(2H)-yl)-N-(5-chlorothiazol-2-yl)-3-cyclohexylpropanamide] the figure was below 1.58 µM; with `Cc1cc(S(=O)(=O)C2CC2)c(Cl)c(=O)n1[C@H](CC1CCCCC1)C(=O)Nc1ncc(Cl)s1` [Example 78, (R)-2-(3-chloro-4-(cyclopropylsulfonyl)-6-methyl-2-oxopyridin-1(2H)-yl)-N-(5-chlorothiazol-2-yl)-3-cyclohexylpropanamide], 1.58 to 15.8 µM; with `Cc1cc(S(=O)(=O)Cc2cccs2)cc(=O)n1C(CC1CCCCC1)C(=O)Nc1ncc(Cl)s1` (centres unmarked) [Example 80, N-(5-chlorothiazol-2-yl)-3-cyclohexyl-2-(6-methyl-2-oxo-4-(thiophen-2-ylmethylsulfonyl)pyridin-1(2H)-yl)propanamide], 1.58 to 15.8 µM.
Next, `Cc1cc(S(=O)(=O)Cc2ccco2)cc(=O)n1C(CC1CCCCC1)C(=O)Nc1nccs1` (centres unmarked) [Example 81, 3-cyclohexyl-2-(4-(furan-2-ylmethylsulfonyl)-6-methyl-2-oxopyridin-1(2H)-yl)-N-(thiazol-2-yl)propanamide]: below 1.58 µM.
On to `Cc1cc(S(=O)(=O)C2CCCC2)cc(=O)n1C(CC1CCCCC1)C(=O)Nc1ncc(Cc2ccc(F)cc2)s1` (centres unmarked) [Example 82, 3-cyclohexyl-2-(4-(cyclopentylsulfonyl)-6-methyl-2-oxopyridin-1(2H)-yl)-N-(5-(4-fluorobenzyl)thiazol-2-yl)propanamide], for which the EC50 is below 1.58 µM.
Next, `Cc1cc(S(=O)(=O)c2cc(C)n(C(CC3CCCCC3)C(=O)Nc3ncc(Cl)s3)c(=O)c2)c(C)o1` (centres unmarked) [Example 83, N-(5-chlorothiazol-2-yl)-3-cyclohexyl-2-(4-(2,5-dimethylfuran-3-ylsulfonyl)-6-methyl-2-oxopyridin-1(2H)-yl)propanamide]: below 1.58 µM; `O=C(Nc1nc2ccc(O)cc2s1)C(CC1CCOCC1)n1ccc(S(=O)(=O)C2CC2)cc1=O` (centres unmarked) [Example 84, 2-(4-(cyclopropylsulfonyl)-2-oxopyridin-1(2H)-yl)-N-(6-hydroxybenzo[d]thiazol-2-yl)-3-(tetrahydro-2H-pyran-4-yl)propanamide]: above 15.8 µM.
Next, `Cc1cc(S(=O)(=O)Cc2cccs2)cc(=O)n1[C@@H](CC1CCCCC1)C(=O)Nc1ncc(Cl)s1` [Example 85, (S)-N-(5-chlorothiazol-2-yl)-3-cyclohexyl-2-(6-methyl-2-oxo-4-(thiophen-2-ylmethylsulfonyl)pyridin-1(2H)-yl)propanamide]: below 1.58 µM.
With `Cc1cc(N2CCCC2)cc(=O)n1C(CC1CCCCC1)C(=O)Nc1nccs1` (centres unmarked) [Example 87, 3-cyclohexyl-2-(6-methyl-2-oxo-4-(pyrrolidin-1-yl)pyridin-1(2H)-yl)-N-(thiazol-2-yl)propanamide] the figure was above 15.8 µM.
As for `COCCC(C)(C)S(=O)(=O)c1ccn(C(CC2CCOCC2)C(=O)Nc2nc3ccc(OC)nc3s2)c(=O)c1` (centres unmarked) [Example 88, 2-(4-(4-methoxy-2-methylbutan-2-ylsulfonyl)-2-oxopyridin-1(2H)-yl)-N-(5-methoxythiazolo[5,4-b]pyridin-2-yl)-3-(tetrahydro-2H-pyran-4-yl)propanamide], the EC50 was in the range of 1.58 to 15.8 µM.
With `Cc1cc(S(=O)(=O)C2CCCC2)cc(=O)n1C(CC1CCCCC1)C(=O)Nc1ncc(CN2CCOCC2)s1` (centres unmarked) [Example 89, 3-cyclohexyl-2-(4-(cyclopentylsulfonyl)-6-methyl-2-oxopyridin-1(2H)-yl)-N-(5-(morpholinomethyl)thiazol-2-yl)propanamide] the figure was below 1.58 µM; with `Cc1cc(-c2ccccc2)cc(=O)n1[C@@H](CC1CCCCC1)C(=O)Nc1nccs1` [Example 90, (S)-3-cyclohexyl-2-(6-methyl-2-oxo-4-phenylpyridin-1(2H)-yl)-N-(thiazol-2-yl)propanamide], above 15.8 µM.
In the case of `Cc1cc(-c2ccccc2Cl)cc(=O)n1[C@@H](CC1CCCCC1)C(=O)Nc1nccs1` [Example 91, (S)-2-(4-(2-chlorophenyl)-6-methyl-2-oxopyridin-1(2H)-yl)-3-cyclohexyl-N-(thiazol-2-yl)propanamide], the EC50 was above 15.8 µM.
For the molecule `Cc1cc(-c2cccc(Cl)c2)cc(=O)n1[C@@H](CC1CCCCC1)C(=O)Nc1nccs1` [Example 92, (S)-2-(4-(3-chlorophenyl)-6-methyl-2-oxopyridin-1(2H)-yl)-3-cyclohexyl-N-(thiazol-2-yl)propanamide], the EC50 is above 15.8 µM.
Next, `Cc1cc(-c2ccc(Cl)cc2)cc(=O)n1[C@@H](CC1CCCCC1)C(=O)Nc1nccs1` [Example 93, (S)-2-(4-(4-chlorophenyl)-6-methyl-2-oxopyridin-1(2H)-yl)-3-cyclohexyl-N-(thiazol-2-yl)propanamide]: above 15.8 µM.
With `COc1cccc(-c2cc(C)n([C@@H](CC3CCCCC3)C(=O)Nc3nccs3)c(=O)c2)c1` [Example 95, (S)-3-cyclohexyl-2-(4-(3-methoxyphenyl)-6-methyl-2-oxopyridin-1(2H)-yl)-N-(thiazol-2-yl)propanamide] the figure was 1.58 to 15.8 µM; with `COc1ccc(-c2cc(C)n([C@@H](CC3CCCCC3)C(=O)Nc3nccs3)c(=O)c2)cc1` [Example 96, (S)-3-cyclohexyl-2-(4-(4-methoxyphenyl)-6-methyl-2-oxopyridin-1(2H)-yl)-N-(thiazol-2-yl)propanamide], above 15.8 µM; with `Cc1cc(-c2cccc(C#N)c2)cc(=O)n1[C@@H](CC1CCCCC1)C(=O)Nc1nccs1` [Example 97, (S)-2-(4-(3-cyanophenyl)-6-methyl-2-oxopyridin-1(2H)-yl)-3-cyclohexyl-N-(thiazol-2-yl)propanamide], above 15.8 µM.
In the case of `Cc1cc(-c2ccc(C#N)cc2)cc(=O)n1[C@@H](CC1CCCCC1)C(=O)Nc1nccs1` [Example 98, (S)-2-(4-(4-cyanophenyl)-6-methyl-2-oxopyridin-1(2H)-yl)-3-cyclohexyl-N-(thiazol-2-yl)propanamide], the EC50 was 1.58 to 15.8 µM.
Next, `Cc1cc(-c2ccoc2)cc(=O)n1[C@@H](CC1CCCCC1)C(=O)Nc1nccs1` [Example 99, (S)-3-cyclohexyl-2-(4-(furan-3-yl)-6-methyl-2-oxopyridin-1(2H)-yl)-N-(thiazol-2-yl)propanamide]: above 15.8 µM; `Cc1cc(-c2cccnc2)cc(=O)n1[C@@H](CC1CCCCC1)C(=O)Nc1nccs1` [Example 100, (S)-3-cyclohexyl-2-(6-methyl-2-oxo-4-(pyridin-3-yl)pyridin-1(2H)-yl)-N-(thiazol-2-yl)propanamide]: 1.58 to 15.8 µM.
Next, `Cc1cc(-c2ccc(S(C)(=O)=O)cc2)cc(=O)n1[C@@H](CC1CCCCC1)C(=O)Nc1nccs1` [Example 101, (S)-3-cyclohexyl-2-(6-methyl-4-(4-(methylsulfonyl)phenyl)-2-oxopyridin-1(2H)-yl)-N-(thiazol-2-yl)propanamide]: above 15.8 µM; `CCS(=O)(=O)c1ccc(-c2cc(C)n([C@@H](CC3CCCCC3)C(=O)Nc3nccs3)c(=O)c2)cc1` [Example 102, (S)-3-cyclohexyl-2-(4-(4-(ethylsulfonyl)phenyl)-6-methyl-2-oxopyridin-1(2H)-yl)-N-(thiazol-2-yl)propanamide]: above 15.8 µM.
In the case of `COc1ccc(Cl)cc1-c1cc(C)n([C@@H](CC2CCCCC2)C(=O)Nc2nccs2)c(=O)c1` [Example 103, (S)-2-(4-(5-chloro-2-methoxyphenyl)-6-methyl-2-oxopyridin-1(2H)-yl)-3-cyclohexyl-N-(thiazol-2-yl)propanamide], the EC50 was above 15.8 µM.
With `Cc1cc(-c2cc3ccccc3o2)cc(=O)n1[C@@H](CC1CCCCC1)C(=O)Nc1nccs1` [Example 104, (S)-2-(4-(benzofuran-2-yl)-6-methyl-2-oxopyridin-1(2H)-yl)-3-cyclohexyl-N-(thiazol-2-yl)propanamide] the figure was above 15.8 µM; with `Cc1cc(-c2ccc(F)cc2)cc(=O)n1[C@@H](CC1CCCCC1)C(=O)Nc1nccs1` [Example 105, (S)-3-cyclohexyl-2-(4-(4-fluorophenyl)-6-methyl-2-oxopyridin-1(2H)-yl)-N-(thiazol-2-yl)propanamide], above 15.8 µM.
